Measurements reported in US5244662A, “Medicinal extract from a mixture of Phellodendron and defatted seed of Croton, and method for it's manufacture” (Korea Green Cross Corporation, priority 1990, dated 1993).
Blank lines part the entries; values can stand above or below the compound they belong to.

Columns and labels:
[1] = treatment of osteoporosis; cited from earlier work
osteoporosis = assay: Clinical trial in osteoporosis; assay type: in vivo, patient
Excerpt: (G-1) Clinical trial on a severe case whose vertebral density was just 0.332 g/cm^2 (29% of normal value), that is, corresponding to the 10th year from each menopause and the inability to walk over ten minutes. […]

P388 (ATCC CCL 46) = system: P388 (ATCC CCL 46); set-up: species or system BDFI mice; details: mouse, in vivo
L1210 (ATCC CCL 219) = system: L1210 (ATCC CCL 219); set-up: species or system BDFI mice; details: mouse, in vivo
granuloma cells = assay: Action on primary granuloma cells (progesterone production); assay type: cell-based, rats
Protocol: Current antitumour drugs affect normal cellular growth as well as growth of tumour cells, whereby very careful therapeutic application of the agents has been required. […] The action of the present extract on spleen cells and granuloma cells was investigated to evaluate the action on normal cellular growth.
The spleen cells originated from BALB/C mice and were cultured in RPMI media under the condition of 7% CO2 /37° C. The granuloma cells originated from the ovum of young rats aged 25 days and were cultured in DMEM/F 12(1:1) media containing fetal bovine serum under the same conditions.

PO-GRSI cells = assay: Steroid hormone synthesis of PO-GRSI; assay type: cell-based
Protocol: Granuloma cells play an important role in producing ovum in mammalian animals, and particularly secrete progesterone to enhance the proliferation of ovum. Granuloma cells metastasized artificially with carcinogenic genes (SV-40 and Ha-Ras) have the ability to synthesize both progesterone, the cell's original function and protein, and the original function of the carcinogenic gene. For the test, PO-GRSI and PA-GS6 were cultured in DMEM/F12(1:1) haematologic culture media containing insulin(2 μg/ml), transferin (5 μg/ml), hydrocortisone(40 μg/ml) and fibronectin(5 μg/ml), and the progesterone was analyzed by radioimmunoassay ([…]).
The antitumour activities of the extract obtained in Example 1 against Granuloma cells were determined also by evaluating its action on the progesterone and 20 alpha --OH-- progesterone synthesis of the captioned two kinds of cells. In the meantime, the action of FORSKOLIN to enhance the two steroid hormone syntheses were also checked.

SMILES: [F-].[Na+] [Sodium fluoride]
- adverse effects of nausea and gastric irritation [1]: About 30%
- rheumatic pain in leg joints [1]: 10%

SMILES: CC#C[C@]1(O)CC[C@H]2[C@@H]3CCc4cc(O)ccc4[C@H]3CC[C@@]21C [Estrogen]
- vertebral density maintained (osteoporosis): 0.341 g/cm^2

SMILES: CO[C@@]12[C@H](COC(N)=O)C3=C(C(=O)C(C)=C(N)C3=O)N1C[C@@H]1N[C@@H]12 [mitomycin C]
- survival rate (%) (P388 (ATCC CCL 46)): 130.4%
- survival time (P388 (ATCC CCL 46)): 21.6 days
- survival rate (%) (L1210 (ATCC CCL 219)): 135%
- survival time (L1210 (ATCC CCL 219)): 21 days

- increase of 20 alpha-OH-progesterone synthesis over the control (PO-GRSI cells): 100 times
- increase of progesterone synthesis over the control (PO-GRSI cells): 60 times
SMILES: C=C[C@@]1(C)CC(=O)[C@]2(O)[C@@]3(C)[C@@H](O)CCC(C)(C)[C@@H]3[C@H](O)[C@H](OC(C)=O)[C@@]2(C)O1 [forskolin]
- progesterone secretion versus control (granuloma cells; forskolin): eight times that of the control
- progesterone (granuloma cells; forskolin 10^-4 M, control 109.6): 829.0 ng/mL
